In US20130023553A1, “PEGYLATED OPIOIDS WITH LOW POTENTIAL FOR ABUSE AND SIDE EFFECTS” (Nektar Therapeutics, priority 2010, published 2013):
Read-outs that look alike come from different tables or passages of the source.

Assays:
[1] = Pharmacokinetics following intravenous (IV) dosing; type: in vivo, Sprague-Dawley rats; conditions: male, Sprague-Dawley, rat, plasma; for Cmax: read-out: Cmax; for Vd: read-out: Vss
From the text: (§1) There were 3 rats/group. All animals were food fasted overnight. […] The predose sample was collected from the JVC.
(§2) Following the last collection point, the animals were euthanized.

[2] = target: T1, human mu opioid receptor (Homo sapiens, UniProt P35372); experiment: cell-based; conditions: for Emax: maximal response at the highest tested concentration, read-out: % max effect, mu opioid receptor; for EC50: read-out: EC50, mu opioid receptor
T1 construct: expressed in transfected cells; host or cells: CHO cells
T1 sequence (P35372 whole entry): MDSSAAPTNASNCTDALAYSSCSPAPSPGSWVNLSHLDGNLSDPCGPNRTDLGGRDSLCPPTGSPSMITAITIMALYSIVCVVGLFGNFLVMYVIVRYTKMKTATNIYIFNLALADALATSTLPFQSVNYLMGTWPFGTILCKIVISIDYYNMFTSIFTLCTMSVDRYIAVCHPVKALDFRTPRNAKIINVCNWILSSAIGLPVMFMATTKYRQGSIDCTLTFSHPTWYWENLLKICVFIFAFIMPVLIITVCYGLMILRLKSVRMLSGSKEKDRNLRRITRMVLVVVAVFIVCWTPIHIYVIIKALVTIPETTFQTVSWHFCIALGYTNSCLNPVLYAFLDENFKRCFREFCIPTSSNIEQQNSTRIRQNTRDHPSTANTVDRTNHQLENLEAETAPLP
Procedure: (§3) Studies were conducted in CHO cells heterologously expressing the cloned human mu, kappa or delta opioid receptors. cAMP was measured using a cAMP HiRange homogenous time-resolved fluorescence assay (HTRF Assay), that is based on a competitive immunoassay principle (Cisbio, Cat.#62AM6PEC).
(§4) Briefly, suspensions of cells expressing either the mu, kappa or delta opioid receptors were prepared in buffer containing 0.5 mM isobutyl-methyl xanthine (IBMX). […] EC50 values were calculated for each compound from a sigmoidal dose-response plot of concentrations versus maximum response. To determine if the compounds behaved as full or partial agonists in the system, the maximal response at the highest tested concentrations of compounds were compared to that produced by a known full agonist.

[3] = target: T2, human kappa opioid receptor (Homo sapiens, UniProt P41145); experiment: biochemical; type: binding
T2 construct: expressed in transfected cells; host or cells: CHO cells
T2 sequence (P41145 whole entry): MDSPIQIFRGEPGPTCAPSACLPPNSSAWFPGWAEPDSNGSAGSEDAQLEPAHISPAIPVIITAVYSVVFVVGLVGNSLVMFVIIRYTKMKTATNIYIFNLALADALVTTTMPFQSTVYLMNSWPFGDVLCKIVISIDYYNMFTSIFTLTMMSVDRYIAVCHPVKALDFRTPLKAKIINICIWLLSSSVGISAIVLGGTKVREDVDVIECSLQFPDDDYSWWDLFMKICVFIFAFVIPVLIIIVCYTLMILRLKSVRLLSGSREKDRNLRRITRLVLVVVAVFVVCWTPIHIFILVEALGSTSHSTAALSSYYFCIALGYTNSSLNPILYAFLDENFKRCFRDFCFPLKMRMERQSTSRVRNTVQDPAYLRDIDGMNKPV
Procedure: (§5) Radioligand displacement was measured using scintillation proximity assays (SPA).
(§6) Briefly, serial dilutions of the test compounds were placed in a 96-well plate to which were added SPA beads, membrane and radioligand. The assay conditions for each opioid receptor subtype are described in Table 10 below. The plates were incubated for 8 hours-overnight at room temperature, spun at 1000 rpm to pellet the SPA beads, and radioactivity was measured using the TopCount® microplate Scintillation counter. Specific binding at each concentration of test compound was calculated by subtracting the non-specific binding measured in the presence of excess cold ligand. IC50 values were obtained by non-linear regression of specific binding versus concentration curves and Ki values were calculated using Kd values that were experimentally pre-determined for each lot of membrane preparations.

[4] = target: T1, human mu opioid receptor; experiment: biochemical; type: binding; conditions: CHO-K1 membranes, [3H]DAMGO 6 nM; read-out: Ki, Mu opioid receptor
Procedure: as §5, §6

[5] = Pharmacokinetics following oral (PO) dosing; type: in vivo, Sprague-Dawley rats; conditions: male, Sprague-Dawley, rat, plasma; for Cmax: read-out: Cmax; for Tmax: read-out: Tmax (converted)
From the text: as §1, §2

[6] = target: T2, human kappa opioid receptor; experiment: cell-based; conditions: maximal response at the highest tested concentration; read-out: % max effect, kappa opioid receptor
Procedure: as §3, §4

[7] = test system: Male CD-1 mice; experiment: Assessment of CNS side effects in mice (Straub tail, muscle rigidity, pinna reflex)
From the text: The objective of this study was to provide an approximation of the side effect profile of various oligomeric conjugates for comparison to the parent compounds by measuring various gross behavioral and physiological signs following administration of compound.
Additional evaluations included muscle rigidity and pinna reflex.
Male CD-1 mice from Charles River Laboratories, Raleigh, N.C., weighing from 16-18 grams were maintained on a regular light/dark cycle (lights on 0600-1800) with ad libitum food and water for 1 week before commencement of testing. N=2 per treatment condition, i.e., separate mice for each dose of each test article, injection was performed via a 25-gauge ⅝-inch needle on a 1-mL tuberculin syringe for the s.c. route and a 22-gauge stainless steel mouse feeding tube for the p.o. route (Becton, Dickinson & Co., Franklin Lakes, N.J.). Each treatment condition was divided about evenly between two observers. […] Test article was administered (s.c. or p.o., and the mouse was placed immediately in the observation chamber). One-half, 1, 2, and 3 hours later, the animal was observed undisturbed for gross signs such as locomotor ataxia, tremor, hyperactivity, hypoactivity, convulsions, hindlimb splay, and Straub tail, and then removed and assessed for muscle tone (normal, rigid, flaccid), pinna reflex (presence or absence), righting reflex (intact or lost), and placing (whether or not the forepaws are extended when the mouse is placed near a surface).
Each of the tables show the number of animals responding at each dose, where N=2. […] A bolded value indicates the lowest dose at which a response was detected.

[8] = test system: squirrel monkeys; experiment: Monkey self-administration model of addictive potential; conditions: 0.03 mg/kg/injection
From the text: Dose-related effects of the test articles were examined, using two or more doses of each drug in 3-4 subjects in a double alternation schedule in which each unit dose (or vehicle) was used in two consecutive sessions before a change in unit dose.
Addictive potential of opioid compounds and opioid conjugates of the invention may be assessed through the use of squirrel monkey models as known in the art.
Under the double alternation schedule, each unit dose (or vehicle) was available for intravenous self-administration for two consecutive sessions before the unit dose was changed. In this way, it was possible to establish the function relating unit dose of intravenous drug to (i) number of injections per session, and/or (ii) the percentage of total responses that occur on the lever leading to self-administration (injection-lever responding, % ILR). Unit doses of drugs ranged from 0.01 to 3.2 mg/kg/injection.

[9] = hydroxycodone series, 1 mg/kg IV, Mean ± SD
[10] = hydroxycodone series, 5.0 mg/kg oral, Mean ± SD

Question: With `COCCOCCOCCOCCOC1C=CC2C3Cc4ccc(OC)c5c4C2(CCN3C)C1O5` (stereo not drawn) [α-6-mPEG4-O-codeine] as the compound, how does the AUC ([1]; iv, 1 mg/kg) read?
Answer: Its AUC is 253 ng·h/mL.

Question: And the AUC(0-inf) ([1]; iv, 1 mg/kg)?
Answer: Its AUC(0-inf) is 257 ng·h/mL.

Question: What about the MRT last ([1]; iv, 1 mg/kg) of the same compound?
Answer: Its MRT last is 0.458 h.

Question: And the clearance ([1]; iv, 1 mg/kg)?
Answer: Its clearance is 65.9 ± 10.4 mL/min/kg.

Question: What about the Cmax ([1]; iv, 1 mg/kg) of the same compound?
Answer: Its Cmax is 746 ± 70 ng/mL.

Question: And the half-life ([1]; iv, 1 mg/kg, read-out: T1/2(2))?
Answer: The half-life was 0.952 ± 0.73 h.

Question: What about the Vd ([1]; iv, 1 mg/kg) of the same compound?
Answer: Its Vd is 2.3 ± 0.72 L/kg.

Question: What about the Emax [2] of the same compound?
Answer: The Emax was 99%.

Question: What about the EC50 [2] of the same compound?
Answer: The EC50 was 22.1 µM.

Question: What about the Ki [3] of the same compound?
Answer: Its Ki is 97 µM.

Question: What about the Ki [4] of the same compound?
Answer: The Ki was 2.89 µM.

Question: And the AUC ([5]; po, 5 mg/kg)?
Answer: Its AUC is 42.2 ng·h/mL.

Question: And the AUC(0-inf) ([5]; po, 5 mg/kg)?
Answer: The AUC(0-inf) was 44.5 ng·h/mL.

Question: And the MRT last ([5]; po, 5 mg/kg)?
Answer: The MRT last was 1.4 h.

Question: And the bioavailability ([5]; po, 5 mg/kg)?
Answer: Its bioavailability is 3.47%.

Question: What about the Cmax ([5]; po, 5 mg/kg) of the same compound?
Answer: The Cmax was 31.1 ± 13.1 ng/mL.

Question: And the half-life ([5]; po, 5 mg/kg, read-out: T1/2(2))?
Answer: Its half-life is 1.97 ± 1 h.

Question: And the Tmax ([5]; po, 5 mg/kg)?
Answer: The Tmax was 0.25 h.

Question: With `COCCOCCOCCOCCOCCOC1C=CC2C3Cc4ccc(OC)c5c4C2(CCN3C)C1O5` (stereo not drawn) [α-6-mPEG5-O-codeine] as the compound, how does the AUC ([1]; iv, 1 mg/kg) read?
Answer: The AUC was 192 ng·h/mL.

Question: And the AUC(0-inf) ([1]; iv, 1 mg/kg)?
Answer: Its AUC(0-inf) is 195 ng·h/mL.

Question: What about the MRT last ([1]; iv, 1 mg/kg) of the same compound?
Answer: Its MRT last is 0.53 h.

Question: And the clearance ([1]; iv, 1 mg/kg)?
Answer: The clearance was 86.2 ± 7.04 mL/min/kg.

Question: What about the Cmax ([1]; iv, 1 mg/kg) of the same compound?
Answer: Its Cmax is 533 ± 38.9 ng/mL.

Question: What about the half-life ([1]; iv, 1 mg/kg, read-out: T1/2(2)) of the same compound?
Answer: The half-life was 0.712 ± 0.0593 h.

Question: And the Vd ([1]; iv, 1 mg/kg)?
Answer: The Vd was 2.95 ± 0.157 L/kg.

Question: And the Emax [6]?
Answer: The Emax was 60%.

Question: What about the Emax [2] of the same compound?
Answer: Its Emax is 95%.

Question: And the Ki [3]?
Answer: Its Ki is 59.1 µM.

Question: What about the Ki [4] of the same compound?
Answer: The Ki was 2.43 µM.

Question: What about the AUC ([5]; po, 5 mg/kg) of the same compound?
Answer: The AUC was 91.8 ng·h/mL.

Question: What about the AUC(0-inf) ([5]; po, 5 mg/kg) of the same compound?
Answer: The AUC(0-inf) was 98.2 ng·h/mL.

Question: And the MRT last ([5]; po, 5 mg/kg)?
Answer: Its MRT last is 1.8 h.

Question: What about the bioavailability ([5]; po, 5 mg/kg) of the same compound?
Answer: The bioavailability was 10.1%.

Question: What about the Cmax ([5]; po, 5 mg/kg) of the same compound?
Answer: The Cmax was 48.7 ± 10.8 ng/mL.

Question: And the half-life ([5]; po, 5 mg/kg, read-out: T1/2(2))?
Answer: Its half-life is 2.08 ± 1.06 h.

Question: What about the Tmax ([5]; po, 5 mg/kg) of the same compound?
Answer: Its Tmax is 0.25 h.

Question: Which results are given for `COCCOCCOCCOCCOCCOCCOC1C=CC2C3Cc4ccc(OC)c5c4C2(CCN3C)C1O5` (stereo not drawn) [α-6-mPEG6-O-codeine]?
Answer: Emax [6]: 21%; Emax [2]: 80%; EC50 [2]: 97.4 µM; Ki [3]: > 160 µM; Ki [4]: 14.2 µM

Question: Which AUC [1, 9] does the source give for `COCCOCCOCCOCCOCCOCCOCCOC1CCC2(O)C3Cc4ccc(OC)c5c4C2(CCN3C)C1O5` (stereo not drawn) [α-6-mPEG7-O-hydroxycodone, α-6-mPEG7-O-oxycodone] here?
Answer: Its AUC is 238 ng·h/mL.

Question: What about the AUC(0-inf) [1, 9] of the same compound?
Answer: The AUC(0-inf) was 263 ng·h/mL.

Question: What about the MRT last [1, 9] of the same compound?
Answer: Its MRT last is 0.905 h.

Question: What about the clearance [1, 9] of the same compound?
Answer: The clearance was 63.3 ± 2.99 mL/min/kg.

Question: What about the Cmax [1, 9] of the same compound?
Answer: Its Cmax is 489 ± 26.5 ng/mL.

Question: And the half-life ([1]; hydroxycodone series, 1 mg/kg IV, Mean ± SD, read-out: T1/2(z))?
Answer: Its half-life is 1.45 ± 0.0542 h.

Question: What about the Vd [1, 9] of the same compound?
Answer: The Vd was 5.31 ± 0.139 L/kg.

Question: What about the Emax [2] of the same compound?
Answer: The Emax was 101%.

Question: What about the EC50 [2] of the same compound?
Answer: Its EC50 is 7.45 µM.

Question: And the “Straub Tail, fold difference relative to parent compound” value ([7]; PO, 1/2 responding)?
Answer: Its value is 30 fold.

Question: What about the “Loss Pinna, fold difference relative to parent compound” value ([7]; PO, 2/2 responding) of the same compound?
Answer: Its value is 30 fold.

Question: And the “Muscle Rigidity, fold difference relative to parent compound” value ([7]; PO, 2/2 responding)?
Answer: The value was 30 fold.

Question: And the “Straub Tail, fold difference relative to parent compound” value ([7]; PO, 2/2 responding)?
Answer: The value was 100 fold.

Question: What about the “Muscle Rigidity, fold difference relative to parent compound” value ([7]; SC, 1/2 responding) of the same compound?
Answer: The value was >300 fold.

Question: And the “Straub Tail, fold difference relative to parent compound” value ([7]; SC, 1/2 responding)?
Answer: Its value is 10 fold.

Question: And the “Loss Pinna, fold difference relative to parent compound” value ([7]; SC, 2/2 responding)?
Answer: Its value is 100 fold.

Question: What about the “Muscle Rigidity, fold difference relative to parent compound” value ([7]; SC, 2/2 responding) of the same compound?
Answer: The value was 30 fold.

Question: And the “Straub Tail, fold difference (reduction in CNS activity) relative to parent compound” value ([7]; SC, 2/2 responding)?
Answer: Its value is 10 fold.

Question: And the Ki [4]?
Answer: The Ki was 1.61 µM.

Question: What about the bioavailability ([5]; po, 5 mg/kg) of the same compound?
Answer: Its bioavailability is 28.1%.

Question: And the AUC [5, 10]?
Answer: Its AUC is 340 ng·h/mL.

Question: And the MRT last [5, 10]?
Answer: The MRT last was 2.97 h.

Question: And the AUC(0-inf) ([5]; hydroxycodone series, 5.0 mg/kg oral, Mean ± SD, * n = 2)?
Answer: The AUC(0-inf) was 370 ng·h/mL.

Question: What about the half-life ([5]; hydroxycodone series, 5.0 mg/kg oral, Mean ± SD, * n = 2, read-out: T1/2(z)) of the same compound?
Answer: The half-life was 1.92 ± 0.487 h.

Question: What about the Cmax [5, 10] of the same compound?
Answer: Its Cmax is 114 ± 38 ng/mL.

Question: And the Tmax ([5]; hydroxycodone series, 5.0 mg/kg oral, median value)?
Answer: The Tmax was 2 h.

Question: What about the “injection lever responses (% ILR)” value [8] of the same compound?
Answer: The value was “only food lever responses”.
